Experiments:
Assay type in all cases: cell-based
[1] = tested on: human cardiac fibroblasts (HCF); experiment: TaqMan Array Human MicroRNA Cards, miRNA deregulation in HCF
Procedure: PCR amplification of array cards was performed as instructed. After quality control of all real-time qPCRs, cT values were exported and all runs were merged into a single excel file. Recommended baseline correction using relative thresholds to correct for varying reconstitution rates of different Taqman probes was not performed. Low-expressed miRNAs with cT > 32 in more than 1 replicate per treatment were excluded from analysis, before samples were normalized to column mean. Multiple unpaired t tests were performed using GraphPad Prism, deregulations were accepted as discoveries if FDR ≤ 1% (using BKY adjustment). As miRNA identifiers were based on miRbase v14, we converted them to the latest v22 for further analysis using miRBaseConverter. 747 sequences could be converted correctly, while the remaining miRNAs were removed from miRbase due to incorrect annotation (e.g. the sequences of hsa-miR-886-3p and hsa-miR-886-5p are part of VTRNA2-1 [44]) or no evidence of human expression.

[2] = tested on: human cardiac fibroblasts (HCF); experiment: BrdU incorporation, HCF proliferation (first screen); details: Homo sapiens, Cardiac fibroblast, 24 h, read-out: Effective conc. (BrdU), EC50 by BrdU assay
Procedure: 96-well plates (TPP) were coated with 0.1% gelatine and seeded with 7500 HCFs/well. After 72 h, medium was exchanged with serial dilutions of compounds in FGM-3 + 1.6% DMSO + 1% 5-bromo-2′-deoxyuridine (BrdU, Roche, #11647229001), prepared in additional plates. After 24 h, cells were washed twice with DPBS (Gibco, #14190144) before incubation with anti-BrdU:POD (Roche, #11647229001) for 60 min (RT). Readout was performed by measurement of absorbance at 370 nm + 490 nm in a Synergy HT (BioTek) microplate reader. […] As validation, HCF were seeded as before, but treated with serial dilutions of compounds after 24 h. […] After 60 min of incubation (37 °C, in the dark), absorbance at 450 nm + 630 nm was measured maintaining 37 °C and analysed as described before.
To assess screening quality, quality acceptance criteria Z′ (Z prime), SW (signal window), S:B (signal-to-background), S:N (signal-to-noise) were determined following. Average Z′ ≥ 0.5 and SW ≥ 2 were required to accept the screening overall, whereas single plates were rejected from analysis if Z′ < 0.3 or SW < 1.

[3] = tested on: human cardiac fibroblasts (HCF); experiment: Caspase-3/7 activation (Caspase-Glo) in HCF; details: within the tested concentration range
Procedure: (§1) As contrast to activity, toxicity of top six similars and lead compounds was determined by a multiplex measurement of caspase activation and membrane integrity (using LDH release and inclusion of the CellTox Green dye). Briefly, HCFs were seeded as before. After 24 h, cells were treated with serial dilutions of compounds with additional 0.1% CellTox™ Green dye (Promega, #G8741). After 24 h incubation, 5 µL medium was removed from each well, mixed with 95 µL LDH Storage buffer (Promega, #J2380) and frozen for later analysis. 95 µL Caspase-Glo® 3/7 reagent (Promega, #G8090) was added to each well, and after 60 min of incubation luminescence was measured in a Synergy HT. Afterwards, micrographs of brightfield and green fluorescence were taken using a Cytation 1 (BioTek) automated microscope maintaining 37 °C and 5% CO2. Wells were manually checked for co-localization of fluorescence signal with cells in brightfield. On the next day, supernatants in LDH Storage buffer were thawed, and 50 µL was mixed with 50 µL of LDH Detection reagent and luminescence was measured after 60 min of incubation. Dose–response curves were determined as described before. To determine toxicity of the top 3 anti-fibrotic similars in hiPS-CM, 20,000 cells/well were seeded, treated and analysed as above, devoid the fluorescent dye steps.

[4] = tested on: human cardiac fibroblasts (HCF); experiment: In vitro migration (scratch) assay of HCF; details: 10 × EC50
Procedure: To assess migrative capabilities of HCF, cells were stained with 1:1000 1,1′-Dioctadecyl-3,3,3′,3′-Tetramethylindotricarbocyanine Iodide (DIR′) dye in FGM-3 for 20 min at 37 °C. Cells were washed with DPBS and seeded into 0.1% gelatine-coated 96-well plates at 30,000 cells per well. […] After 17 h and 24 h, plates were imaged again. Rate of migration was determined using the migrative index (MI).

[5] = tested on: human iPS-derived cardiomyocytes (hiPS-CM); experiment: Caspase-3/7 activation in hiPS-CM; details: maximal available concentration
Procedure: as §1

[6] = tested on: human iPS-derived cardiomyocytes (hiPS-CM); experiment: LDH release in hiPS-CM; details: maximal available concentration
Procedure: as §1

[7] = mean of DMSO minus mean of treatment

Question: What does the source list for `C[C@]12CC[C@H](O)C[C@H]1CC[C@@H]1[C@@H]2CC[C@]2(C)[C@@H](c3ccc(=O)oc3)CC[C@]12O` [Bufalin, bufalin]?
Answer: Mean of treatment, hsa-miR-125a-5p-002198 ([1]; cT normalized to column mean): -1.094; Mean of treatment, hsa-miR-132-000457 ([1]; cT normalized to column mean): -3.644; Mean of treatment, hsa-miR-146a-000468 ([1]; cT normalized to column mean): -6.478; Mean of treatment, hsa-miR-886-3p-002194 ([1]; cT normalized to column mean): -0.5419; Difference / ΔCT, hsa-miR-125a-5p-002198 [1, 7]: -1.48; Difference / ΔCT, hsa-miR-132-000457 [1, 7]: 1.1; Difference / ΔCT, hsa-miR-146a-000468 [1, 7]: -1.167; Difference / ΔCT, hsa-miR-886-3p-002194 [1, 7]: -2.302; EC50 [2]: 2.1 nM; induction of Caspase-3/7 [3]: dose-dependent induction of Caspase-3/7; HCF migration [4]: nearly complete lack of migration within the first half hour

Question: `COc1cccc2c1C(=O)c1c(O)c3c(c(O)c1C2=O)C[C@@](O)(C(=O)CO)C[C@@H]3O[C@H]1C[C@H](N)[C@H](O)[C@H](C)O1` [doxorubicin] was tested. Which Caspase-3/7 activation [5] did it give?
Answer: Caspase-3/7 activation

Question: What about the LDH release [6] of the same molecule?
Answer: increased LDH release
